Results: ChEMBL document CHEMBL3045022, “The discovery of potential cyclin A/CDK2 inhibitors: a combination of 3D QSAR pharmacophore modeling, virtual screening, and molecular docking studies” (Med Chem Res, 2013)

Molecular target: Cyclin-dependent kinase 2/cyclin A (Homo sapiens, UniProt P24941)
Test: Inhibition of CDK2/cyclinA (unknown origin)
Type: protein-complex assay

Row | SMILES | IC50
1 | Nc1nc(Nc2ccc(C(=O)O)cc2)nc(OCC2CCCCC2)c1N=O | 110 nM
2 | COc1cccc(Nc2ncc(N=O)c(OCC3CCCCC3)n2)c1 | 340 nM
3 | O=Nc1cnc(Nc2cccc(Br)c2)nc1OCC1CCCCC1 | 500 nM
4 | CCOc1nc(Nc2ccc(OC)cc2)nc(N)c1C=O | 1900 nM
5 | Nc1nc(N)c([N+](=O)[O-])c(OCC2CCCCC2)n1 | 8300 nM
6 | Brc1cccc(Nc2nccc(OCC3CCCCC3)n2)c1 | 26000 nM
7 | Nc1nc(N)c(-c2ccco2)c(OCC2CCCCC2)n1 | 56300 nM
8 | Nc1nc(Nc2ccc(C(=O)O)cc2)nc(OCC2CCCCC2)c1C=O | 610 nM
9 | COc1ccc(Nc2nc(N)c(C=O)c(OC(C)C)n2)cc1 | 1800 nM
10 | COc1ccc(Nc2nc(N)c(/C=N/O)c(OCC3CCCCC3)n2)cc1 | 8300 nM
11 | N#CCc1ccc(Nc2nc(N)cc(OCC3CCCCC3)n2)cc1 | 24000 nM
12 | Nc1nc(N)c(-c2cccs2)c(OCC2CCCCC2)n1 | 55000 nM
13 | N#Cc1c(N)nc(N)nc1OCC1CCCCC1 | 61000 nM
14 | COc1nc(N)nc(N)c1N=O | 79000 nM
15 | O=Nc1cnc(Nc2ccc(S(=O)(=O)NCC3CCCO3)cc2)nc1OCC1CCCCC1 (stereo not drawn) | 8.1 nM
16 | O=Nc1cnc(Nc2ccc(S(=O)(=O)Nc3nccs3)cc2)nc1OCC1CCCCC1 | 19 nM
17 | CC(C)Oc1nc(Nc2ccc(S(N)(=O)=O)cc2)nc(N)c1C=O | 26 nM
18 | NC(=O)c1ccc(Nc2ncc(N=O)c(OCC3CCCCC3)n2)cc1 | 34 nM
19 | O=Nc1cnc(Nc2cccc(CO)c2)nc1OCC1CCCCC1 | 45 nM
20 | CCOc1nc(Nc2ccc(S(N)(=O)=O)cc2)nc(N)c1C=O | 49 nM
21 | CCN(CC)S(=O)(=O)c1ccc(Nc2ncc(N=O)c(OCC3CCCCC3)n2)cc1 | 86 nM
22 | CC[C@@H](C)Oc1nc(Nc2ccc(S(N)(=O)=O)cc2)ncc1C=O | 13.1 nM
23 | N#CCc1cccc(Nc2nc(N)c(N=O)c(OCC3CCCCC3)n2)c1 | 33 nM
24 | Nc1nc(Nc2ccc(S(N)(=O)=O)cc2)nc(OCC2CCCCC2)c1C=O | 49 nM
25 | CCOc1nc(Nc2ccc(S(N)(=O)=O)cc2)nc(N)c1N=O | 93 nM
26 | Nc1nc(Nc2ccc(S(N)(=O)=O)cc2)nc(OCC2CCCCC2)c1/C=N/O | 117 nM
27 | CCN(CC)C(=O)c1ccc(Nc2nc(N)c(N=O)c(OCC3CCCCC3)n2)cc1 | 200 nM
28 | CSc1cccc(Nc2nc(N)c(N=O)c(OCC3CCCCC3)n2)c1 | 400 nM
